Test results: patent US6864061B2, “Method for screening compounds for anti-inflammatory activity” (GeneTrol Biotherapeutics, Inc., priority 2000, dated 2005)

How the values were obtained:
Format in all cases: cell-based, human
[1] = test system: PKR-overexpressing Namalwa cells (Nam-PKR), TNF-alpha production; test: TNF-alpha production in PMA/poly I:C-induced PKR-overexpressing Namalwa cells (ELISA); conditions: 1 mM 2-AP, 20 mM PMA priming 20 hr, 200 μg/ml poly I:C induction 3 days, FIG. 2A
Experimental: (§1) PKR-transfected Namalwa cells (Nam-PKR) were cultured at 2.5×10^5 cells/ml in DMEM/F12 medium supplemented with 10% FBS. The cells were treated with 20 mM PMA (priming) for 20 hr followed by treatment with 200 μg/ml poly I:C (induction) for 3 days in the presence of 1 mM 2-aminopurine (2-AP) or in the absence of 2-AP. One set of cells was left untreated (non-induced controls). Following treatment, the culture supernatants were collected and analyzed for TNF-alpha or for TNF-beta by ELISA according to the procedure provided by the supplier of the ELISA kits (R&D Systems). The data for cytokine induction is shown in FIGS. 2A and 2B, which illustrates that the PKR-overexpressing Namalwa cell line produces a high level of proinflammatory cytokine (TNF-alpha) under induction conditions (FIG. 2A) and that the induced levels of TNF-alpha are about 4-fold lower in the presence of the PKR inhibitor, 2-AP.

[2] = test system: PKR-overexpressing Namalwa cells (Nam-PKR), TNF-beta production; test: TNF-beta production in PMA/poly I:C-induced PKR-overexpressing Namalwa cells (ELISA); conditions: 1 mM 2-AP; 20 mM PMA priming 20 hr, 200 μg/ml poly I:C induction 3 days; FIG. 2B
Experimental: as §1

[3] = test system: PKR-overexpressing Namalwa cells (Nam-PKR), IFN-alpha production; test: Dose-response inhibition of IFN-alpha production in PMA and poly r(I):poly r(C) treated PKR-overexpressing Namalwa cells; conditions: FIG. 3

For `Nc1ncc2[nH]cnc2n1` [2-AP, 2-aminopurine], the “suppression of TNF-alpha production level, with vs without the PKR inhibitor” value [1] was “about 4 fold”, the “suppression of TNF-alpha production level, with vs without the PKR inhibitor” value ([1]; listed as 2 AP) was 4 fold and the “suppression of TNF-beta production level, with vs without the PKR inhibitor” value [2] was 5 fold. The “inhibition of IFN-alpha production at 1 mM (in words)” value ([3]; 1 mM 2-AP, both experiments) was “relatively ineffective”, the “inhibition of IFN-alpha production at 8 mM (in words)” value ([3]; 8 mM 2-AP) was “completely inhibited” and the “inhibition of IFN-alpha at 5 mM relative to 1 mM” value ([3]; first experiment) was 360 fold. The “inhibition of INF-alpha production between 1 mM and 5 mM” value ([3]; second experiment) was 5 fold.
